Data reported in ChEMBL document CHEMBL4004883, “Biologically active perspective synthesis of heteroannulated 8-nitroquinolines with green chemistry approach” (Bioorg Med Chem Lett, 2017).
≈ marks a conversion by molar mass, not a printed value.

Legend:
A549 = test: Cytotoxicity against human A549 cells assessed as decrease in cell viability after 48 hrs by MTT assay; type: functional, cell-based; settings: A549, 48 h
Bacillus subtilis [1] = test: Antibacterial activity against Bacillus subtilis MTCC 121 incubated for 24 hrs under dark condition by microwell dilution method; type: functional; settings: MTCC 121, 24 h
Staphylococcus aureus [2] = test: Antibacterial activity against Staphylococcus aureus MTCC 96 incubated for 24 hrs under dark condition by microwell dilution method; type: functional; settings: MTCC 96, 24 h
Escherichia coli [3] = test: Antibacterial activity against Escherichia coli MTCC 1652 incubated for 24 hrs under dark condition by microwell dilution method; type: functional; settings: MTCC 1652, 24 h
[4] = Antioxidant activity assessed as assessed as ferric ion reducing activity by measuring absorbance at 700 nm at 100 ug/ml after 20 mins by spectrophotometric method; type: functional
[5] = Antioxidant activity assessed as total antioxidant capacity measured as ascorbic acid equivalents at 20 ug/ml after 90 mins by phosphomolybdenum method; type: functional
[6] = Antioxidant activity assessed as total antioxidant capacity measured as ascorbic acid equivalents at 60 ug/ml after 90 mins by phosphomolybdenum method; type: functional
[7] = Antioxidant activity assessed as DPPH radical scavenging activity after 20 mins by UV/VIS Spectrophotometric method; type: functional
MCF7 = test: Cytotoxicity against human MCF7 cells assessed as decrease in cell viability after 48 hrs by MTT assay; type: functional, cell-based; settings: MCF7, 48 h
Bacillus subtilis [8] = test: Antibacterial activity against Bacillus subtilis MTCC 121 at 100 ug incubated for 24 hrs under dark condition by agar well diffusion method; type: functional; settings: MTCC 121, 24 h, read-out: IZ
Escherichia coli [9] = test: Antibacterial activity against Escherichia coli MTCC 1652 at 100 ug incubated for 24 hrs under dark condition by agar well diffusion method; type: functional; settings: MTCC 1652, 24 h, read-out: IZ
Pseudomonas aeruginosa [10] = test: Antibacterial activity against Pseudomonas aeruginosa MTCC 102 at 100 ug incubated for 24 hrs under dark condition by agar well diffusion method; type: functional; settings: MTCC 102, 24 h, read-out: IZ
Pseudomonas aeruginosa [11] = test: Antibacterial activity against Pseudomonas aeruginosa MTCC 102 incubated for 24 hrs under dark condition by microwell dilution method; type: functional; settings: MTCC 102, 24 h
[12] = Antioxidant activity assessed as total antioxidant capacity measured as ascorbic acid equivalents at 100 ug/ml after 90 mins by phosphomolybdenum method; type: functional
[13] = Antioxidant activity assessed as assessed as ferric ion reducing activity by measuring absorbance at 700 nm at 60 ug/ml after 20 mins by spectrophotometric method; type: functional
Staphylococcus aureus [14] = test: Antibacterial activity against Staphylococcus aureus MTCC 96 at 100 ug incubated for 24 hrs under dark condition by agar well diffusion method; type: functional; settings: MTCC 96, 24 h, read-out: IZ
[15] = Antioxidant activity assessed as assessed as ferric ion reducing activity by measuring absorbance at 700 nm at 20 ug/ml after 20 mins by spectrophotometric method; type: functional

SMILES	MIC (Bacillus subtilis [1])	MIC (Staphylococcus aureus [2])	MIC (Escherichia coli [3])	IC50 [7]	MIC (Pseudomonas aeruginosa [11])	IC50 (A549)	OD [4]	Activity [5]	Activity [6]	IC50 (MCF7)	zone of inhibition at 100 µg/disc (Bacillus subtilis [8])	zone of inhibition at 100 µg/disc (Escherichia coli [9])	zone of inhibition at 100 µg/disc (Pseudomonas aeruginosa [10])	Activity [12]	OD [13]	zone of inhibition at 100 µg/disc (Staphylococcus aureus [14])	OD [15]
O=[N+]([O-])c1cccc2c1NCC1C2=NN(c2ccccc2)C1c1ccc(Cl)cc1 (stereo not given)	15 µg/mL (≈ 37.1 µM)	15 µg/mL (≈ 37.1 µM)	34 µg/mL (≈ 84 µM)	202.18 µg/mL (≈ 499 µM)	100 µg/mL (≈ 247 µM)	28.7 µM	0.101	4.12 µgequiv/ml	6.17 µgequiv/ml	41.4 µM	16 mm	17 mm	13 mm	10.4 µgequiv/ml	0.09	17 mm	0.082
Cc1cc(C(C)(C)C)c(O)c(C(C)(C)C)c1	–	–	–	–	–	–	0.612	–	–	–	–	–	–	–	0.448	–	0.329
O=[N+]([O-])c1cccc2c1NCC1C2=NN(c2ccccc2)C1c1ccc(Br)cc1 (stereo not given)	12.5 µg/mL (≈ 27.8 µM)	15 µg/mL (≈ 33.4 µM)	25.5 µg/mL (≈ 56.8 µM)	226.97 µg/mL (≈ 505 µM)	55.5 µg/mL (≈ 124 µM)	29.6 µM	0.107	6.12 µgequiv/ml	13.7 µgequiv/ml	34.7 µM	19 mm	18 mm	16 mm	18.2 µgequiv/ml	0.096	16 mm	0.09
O=C1O[C@H]([C@@H](O)CO)C(O)=C1O [ASCORBIC ACID]	–	–	–	28.02 µg/mL (≈ 159 µM)	–	–	–	–	–	–	–	–	–	–	–	–	–
O=[N+]([O-])c1cc(Cl)cc2c1NCC1C2=NNC1c1ccc(F)cc1 (stereo not given)	50 µg/mL (≈ 144 µM)	50 µg/mL (≈ 144 µM)	80.5 µg/mL (≈ 232 µM)	155.12 µg/mL (≈ 447 µM)	200 µg/mL (≈ 577 µM)	63.6 µM	0.098	1.21 µgequiv/ml	2.49 µgequiv/ml	98.7 µM	12 mm	12 mm	8 mm	5.03 µgequiv/ml	0.088	12 mm	0.08
COc1ccc(N2N=C3c4cc(Cl)cc([N+](=O)[O-])c4NCC3C2c2ccc(Cl)cc2)cc1 (stereo not given)	50 µg/mL (≈ 107 µM)	50 µg/mL (≈ 107 µM)	80.5 µg/mL (≈ 172 µM)	151.83 µg/mL (≈ 324 µM)	100 µg/mL (≈ 213 µM)	32 µM	0.253	1.86 µgequiv/ml	4.43 µgequiv/ml	25.8 µM	14 mm	12 mm	13 mm	8.36 µgequiv/ml	0.171	13 mm	0.1
O=[N+]([O-])c1cccc2c1NCC1C2=NN(c2ccccc2)C1c1ccc(F)cc1 (stereo not given)	12.5 µg/mL (≈ 32.2 µM)	10 µg/mL (≈ 25.7 µM)	17 µg/mL (≈ 43.8 µM)	205.13 µg/mL (≈ 528 µM)	55.5 µg/mL (≈ 143 µM)	23.2 µM	0.112	4.02 µgequiv/ml	7.36 µgequiv/ml	46 µM	18 mm	21 mm	18 mm	11.2 µgequiv/ml	0.1	20 mm	0.092
N#CC1=C(N)OC2=C(CNc3c2cccc3[N+](=O)[O-])C1c1ccc(F)cc1 (stereo not given)	7.5 µg/mL (≈ 20.6 µM)	5 µg/mL (≈ 13.7 µM)	17 µg/mL (≈ 46.7 µM)	128.58 µg/mL (≈ 353 µM)	37 µg/mL (≈ 102 µM)	22.1 µM	0.12	2.12 µgequiv/ml	4.06 µgequiv/ml	35.7 µM	26 mm	22 mm	20 mm	7.45 µgequiv/ml	0.098	23 mm	0.085
N#CC1=C(N)OC2=C(CNc3c2cccc3[N+](=O)[O-])C1c1ccc(Br)cc1 (stereo not given)	12.5 µg/mL (≈ 29.4 µM)	10 µg/mL (≈ 23.5 µM)	25.5 µg/mL (≈ 60 µM)	125.08 µg/mL (≈ 294 µM)	37 µg/mL (≈ 87 µM)	34.8 µM	0.134	1.5 µgequiv/ml	2.98 µgequiv/ml	24.7 µM	20 mm	18 mm	20 mm	5.67 µgequiv/ml	0.095	20 mm	0.071

More lines, in order of falling MIC (Bacillus subtilis [1]), values ahead:

MIC (Bacillus subtilis [1])	MIC (Staphylococcus aureus [2])	MIC (Escherichia coli [3])	IC50 [7]	MIC (Pseudomonas aeruginosa [11])	SMILES	IC50 (A549)	OD [4]	Activity [5]	Activity [6]	IC50 (MCF7)	zone of inhibition at 100 µg/disc (Bacillus subtilis [8])	zone of inhibition at 100 µg/disc (Escherichia coli [9])	zone of inhibition at 100 µg/disc (Pseudomonas aeruginosa [10])	Activity [12]	OD [13]	zone of inhibition at 100 µg/disc (Staphylococcus aureus [14])	OD [15]
60 µg/mL (≈ 165 µM)	55 µg/mL (≈ 151 µM)	97.5 µg/mL (≈ 268 µM)	169.33 µg/mL (≈ 466 µM)	100 µg/mL (≈ 275 µM)	O=[N+]([O-])c1cc(Cl)cc2c1NCC1C2=NNC1c1ccc(Cl)cc1 (stereo not given)	95.1 µM	0.091	3.47 µgequiv/ml	6.27 µgequiv/ml	78.5 µM	10 mm	8 mm	14 mm	11.8 µgequiv/ml	0.083	13 mm	0.072
50 µg/mL (≈ 139 µM)	55 µg/mL (≈ 153 µM)	25.5 µg/mL (≈ 70.8 µM)	183.1 µg/mL (≈ 508 µM)	55.5 µg/mL (≈ 154 µM)	Cc1ccc(C2C(C#N)=C(N)OC3=C2CNc2c3cccc2[N+](=O)[O-])cc1 (stereo not given)	56.3 µM	0.163	1.82 µgequiv/ml	4.43 µgequiv/ml	34.1 µM	12 mm	18 mm	15 mm	8.15 µgequiv/ml	0.111	13 mm	0.09
20 µg/mL (≈ 49.2 µM)	40 µg/mL (≈ 98.4 µM)	80.5 µg/mL (≈ 198 µM)	124.38 µg/mL (≈ 306 µM)	150 µg/mL (≈ 369 µM)	COc1ccc(C2C(C#N)=C(N)OC3=C2CNc2c3cccc2[N+](=O)[O-])cc1OC (stereo not given)	50.6 µM	0.157	4.04 µgequiv/ml	9.51 µgequiv/ml	56.3 µM	15 mm	12 mm	13 mm	13.7 µgequiv/ml	0.111	14 mm	0.078
20 µg/mL (≈ 49.9 µM)	17.5 µg/mL (≈ 43.7 µM)	42.5 µg/mL (≈ 106 µM)	138.8 µg/mL (≈ 347 µM)	200 µg/mL (≈ 499 µM)	COc1ccc(C2C3CNc4c(cccc4[N+](=O)[O-])C3=NN2c2ccccc2)cc1 (stereo not given)	40.2 µM	0.192	4.95 µgequiv/ml	10.5 µgequiv/ml	31.3 µM	17 mm	14 mm	10 mm	14.3 µgequiv/ml	0.134	15 mm	0.091
17.5 µg/mL (≈ 42.1 µM)	17.5 µg/mL (≈ 42.1 µM)	25.5 µg/mL (≈ 61.4 µM)	132.65 µg/mL (≈ 319 µM)	55.5 µg/mL (≈ 134 µM)	N#CC1=C(N)OC2=C(CNc3c2cc(Cl)cc3[N+](=O)[O-])C1c1ccc(Cl)cc1 (stereo not given)	25.5 µM	0.156	3.67 µgequiv/ml	7.08 µgequiv/ml	18 µM	18 mm	18 mm	16 mm	13 µgequiv/ml	0.125	15 mm	0.093
10 µg/mL (≈ 26.3 µM)	10 µg/mL (≈ 26.3 µM)	17 µg/mL (≈ 44.6 µM)	118.03 µg/mL (≈ 310 µM)	55.5 µg/mL (≈ 146 µM)	N#CC1=C(N)OC2=C(CNc3c2cccc3[N+](=O)[O-])C1c1ccc(Cl)cc1 (stereo not given)	28.1 µM	0.189	0.59 µgequiv/ml	1.06 µgequiv/ml	22.7 µM	24 mm	21 mm	18 mm	2.57 µgequiv/ml	0.125	21 mm	0.088
7.5 µg/mL (≈ 16.4 µM)	10 µg/mL (≈ 21.8 µM)	34 µg/mL (≈ 74.2 µM)	170.8 µg/mL (≈ 373 µM)	55.5 µg/mL (≈ 121 µM)	CCOc1ccc(C2C3CNc4c(cccc4[N+](=O)[O-])C3=NN2c2ccccc2)c(OCC)c1 (stereo not given)	50.9 µM	0.098	2.46 µgequiv/ml	5.75 µgequiv/ml	65.7 µM	23 mm	19 mm	18 mm	9.47 µgequiv/ml	0.085	19 mm	0.068
2.5 µg/mL (≈ 7.15 µM)	2.5 µg/mL (≈ 7.15 µM)	8.5 µg/mL (≈ 24.3 µM)	–	18.5 µg/mL (≈ 52.9 µM)	CC1(C)S[C@@H]2[C@H](NC(=O)[C@H](N)c3ccccc3)C(=O)N2[C@H]1C(=O)O [AMPICILLIN]	–	–	–	–	–	30 mm	24 mm	22 mm	–	–	24 mm	–
